The source of these data is US20220220155A1, “VASCULAR C[…] USE THEREOF” (priority 2019, published 2022).

Where a SMILES comes first, the peptide text is derived from it. [ ]: non-standard residue; d: D form. ξ: configuration not given here. ξD = NC(CC(=O)O)C(=O)O

Test [1] concerns the target T1, PLA2-treated LDL (Homo sapiens, UniProt P04114).
T1 construct: from tissue; host or cells: pooled normolipemic human plasma
As to the kind of experiment: Anti-LDL aggregation assay, turbidimetry, aggregation induced by phospholipase A2 (PLA2). In kind it is biochemical. The conditions noted are these: 18 h, read-out: Inhibition of LDL aggregation, PLA2-treated LDL. How it is done: (§1) The efficacy of the novel compounds to inhibit the aggregation of LDL has been tested in two parallel turbidimetric assays differing from each other only in the enzyme used to induce LDL aggregation, namely sphingomyelinase (SMase) and phospholipase A2 (PLA2), respectively.
(§2) Human LDL (d1.019-d1.063 g/mL) were obtained from pooled normolipemic human plasma by sequential ultracentrifugation in a KBr density gradient. Briefly, VLDL were first discarded after spinning plasma at 36.000 rpm for 18 h at 4° C., VLDL-free plasma was layered with 1.063 g/mL KBr solution and centrifuged at 36,000 rpm for 18 h at 4° C. LDL were dialyzed against 0.02 M Tris, 0.15 M NaCl, 1 mM EDTA, pH 7.5 for 18 hours, and then against normal saline for 2 hours. Finally, isolated LDL were filter-sterilized. Protein concentration was determined using a colorimetric assay.
(§3) Human LDL particles (1.44 mg/mL) were incubated with 40 U/L of Bacillus cereus SMase or with 50 μg/L of type II secretory PLA2 from honey bee venom in 20 mM Tris buffer (pH 7.0) containing 150 mM NaCl, 2 mM CaCl2), and MgCl2 at 37° C. LDL incubation with SMase and PLA2 was performed at peptide concentration of 10 μM (ratio compound/ApoB-100: 4.7/1) for 18 hours. LDL lipolysis was stopped by addition of EDTA (final concentration 10 mM).
(§4) The efficiency of each novel compound to inhibit LDL aggregation induced by SMase and PLA2 was estimated by turbidimetry measuring the absorbance at a wavelength of 405 nm. Thus, the inhibitory activity was calculated according to Equation I.
(§5) a corresponds to the absorbance value in the presence of nLDL particles, LDL aggregating enzyme (i.e., SMase or PLA2) and test compound;
(§6) b corresponds to the absorbance value in the presence of only nLDL particles;
(§7) c corresponds to the absorbance value in the presence of nLDL particles and LDL aggregating enzyme (i.e., SMase or PLA2);

Test [2] has as its target T2, SMase-treated LDL (Homo sapiens, UniProt P04114).
T2 construct: from tissue; host or cells: pooled normolipemic human plasma
As to the kind of experiment: Anti-LDL aggregation assay, turbidimetry, aggregation induced by sphingomyelinase (SMase). In kind it is biochemical. To be noted: peptide 10 μM (compound/ApoB-100 4.7/1), human LDL 1.44 mg/mL, 40 U/L Bacillus cereus SMase, 18 hours, 37° C., absorbance at 405 nm, Equation I. How it is done:
as §1, §2, §3, §4, §5, §6, §7

The test system of test [3] is human coronary vascular smooth muscle cells (hcVSMC). The test is described as follows: Inhibition of intracellular cholesterol accumulation induced by SMase (CE/FC ratio). In kind it is cell-based. To be noted: hcVSMC exposed 2 hours to SMase-LDL treated overnight with peptide 10 μM; CE and FC by thin layer chromatography and densitometry, Equation II. As for the experimental part:
Thus, the inhibitory effect of the novel compounds on the intracellular cholesterol accumulation has been analysed in terms of decrease in the ratio of intracellular CE and free cholesterol FC content of hcVSMC exposed to LDL and SMase-LDL.
All cells used were from a unique batch in order to prevent variability from cell origin. Cell quiescence was induced by maintaining the cell culture for 24 hours in a medium. Serum-deprived cells between passages 4 and 8 were used for experiments. VSMCs at these passages appeared as a relatively homogeneous population, showing a hill-and-valley confluence pattern. Cell monolayers were grown in vascular cell basal medium supplemented with vascular smooth muscle growth kit components. Quiescent cells were 2-hours exposed to LDL treated with SMase (in absence or presence of peptides) overnight at a concentration of 10 μM previously checked its aggregation by a turbidimetry test. Cells were then either collected for lipid extraction or processed for confocal microscopy analysis.
Following the lipoprotein incubation period, hcVSMC were exhaustively washed (twice with PBS, twice with PBS supplemented with 1% BSA, and once with PBS supplemented with both 1% BSA and 100 U/mL heparin), before they were harvested into 1 mL of 0.15 M NaOH. Lipids were extracted using the Bligh and Dyer method. The lipid extract was redissolved in dichloromethane, applied to silica gel plates, and separated by thin layer chromatography. A mixture of cholesterol and cholesterol palmitate, were also run as standards. Heptane or a solvent combination of heptane/diethylether/acetic acid (74:21:4, v/v/v) were used as chromatographic mobile phase. After lipid separation, the plates were dried and stained as previously reported. Finally, the spots corresponding to cholesteryl ester (CE) and free cholesterol (FC) were quantitated by densitometry.
The efficacy of each novel compound to decrease the ratio of intracellular cholesteryl esters (CE) and free cholesterol (FC) content of hcVSMC exposed to LDL and SMase-LDL was calculated according to Equation II.
a corresponds to the CE/FC ratio in hcVSMC exposed to SMase-LDL and in the presence of the test compound.
b corresponds to the CE/FC ratio in hcVSMC exposed to nLDL in the absence of the test compound.
c corresponds to the CE/FC ratio in hcVSMC exposed to SMase-LDL in the absence of the test compound.

T2 sequence (P04114 28-4563): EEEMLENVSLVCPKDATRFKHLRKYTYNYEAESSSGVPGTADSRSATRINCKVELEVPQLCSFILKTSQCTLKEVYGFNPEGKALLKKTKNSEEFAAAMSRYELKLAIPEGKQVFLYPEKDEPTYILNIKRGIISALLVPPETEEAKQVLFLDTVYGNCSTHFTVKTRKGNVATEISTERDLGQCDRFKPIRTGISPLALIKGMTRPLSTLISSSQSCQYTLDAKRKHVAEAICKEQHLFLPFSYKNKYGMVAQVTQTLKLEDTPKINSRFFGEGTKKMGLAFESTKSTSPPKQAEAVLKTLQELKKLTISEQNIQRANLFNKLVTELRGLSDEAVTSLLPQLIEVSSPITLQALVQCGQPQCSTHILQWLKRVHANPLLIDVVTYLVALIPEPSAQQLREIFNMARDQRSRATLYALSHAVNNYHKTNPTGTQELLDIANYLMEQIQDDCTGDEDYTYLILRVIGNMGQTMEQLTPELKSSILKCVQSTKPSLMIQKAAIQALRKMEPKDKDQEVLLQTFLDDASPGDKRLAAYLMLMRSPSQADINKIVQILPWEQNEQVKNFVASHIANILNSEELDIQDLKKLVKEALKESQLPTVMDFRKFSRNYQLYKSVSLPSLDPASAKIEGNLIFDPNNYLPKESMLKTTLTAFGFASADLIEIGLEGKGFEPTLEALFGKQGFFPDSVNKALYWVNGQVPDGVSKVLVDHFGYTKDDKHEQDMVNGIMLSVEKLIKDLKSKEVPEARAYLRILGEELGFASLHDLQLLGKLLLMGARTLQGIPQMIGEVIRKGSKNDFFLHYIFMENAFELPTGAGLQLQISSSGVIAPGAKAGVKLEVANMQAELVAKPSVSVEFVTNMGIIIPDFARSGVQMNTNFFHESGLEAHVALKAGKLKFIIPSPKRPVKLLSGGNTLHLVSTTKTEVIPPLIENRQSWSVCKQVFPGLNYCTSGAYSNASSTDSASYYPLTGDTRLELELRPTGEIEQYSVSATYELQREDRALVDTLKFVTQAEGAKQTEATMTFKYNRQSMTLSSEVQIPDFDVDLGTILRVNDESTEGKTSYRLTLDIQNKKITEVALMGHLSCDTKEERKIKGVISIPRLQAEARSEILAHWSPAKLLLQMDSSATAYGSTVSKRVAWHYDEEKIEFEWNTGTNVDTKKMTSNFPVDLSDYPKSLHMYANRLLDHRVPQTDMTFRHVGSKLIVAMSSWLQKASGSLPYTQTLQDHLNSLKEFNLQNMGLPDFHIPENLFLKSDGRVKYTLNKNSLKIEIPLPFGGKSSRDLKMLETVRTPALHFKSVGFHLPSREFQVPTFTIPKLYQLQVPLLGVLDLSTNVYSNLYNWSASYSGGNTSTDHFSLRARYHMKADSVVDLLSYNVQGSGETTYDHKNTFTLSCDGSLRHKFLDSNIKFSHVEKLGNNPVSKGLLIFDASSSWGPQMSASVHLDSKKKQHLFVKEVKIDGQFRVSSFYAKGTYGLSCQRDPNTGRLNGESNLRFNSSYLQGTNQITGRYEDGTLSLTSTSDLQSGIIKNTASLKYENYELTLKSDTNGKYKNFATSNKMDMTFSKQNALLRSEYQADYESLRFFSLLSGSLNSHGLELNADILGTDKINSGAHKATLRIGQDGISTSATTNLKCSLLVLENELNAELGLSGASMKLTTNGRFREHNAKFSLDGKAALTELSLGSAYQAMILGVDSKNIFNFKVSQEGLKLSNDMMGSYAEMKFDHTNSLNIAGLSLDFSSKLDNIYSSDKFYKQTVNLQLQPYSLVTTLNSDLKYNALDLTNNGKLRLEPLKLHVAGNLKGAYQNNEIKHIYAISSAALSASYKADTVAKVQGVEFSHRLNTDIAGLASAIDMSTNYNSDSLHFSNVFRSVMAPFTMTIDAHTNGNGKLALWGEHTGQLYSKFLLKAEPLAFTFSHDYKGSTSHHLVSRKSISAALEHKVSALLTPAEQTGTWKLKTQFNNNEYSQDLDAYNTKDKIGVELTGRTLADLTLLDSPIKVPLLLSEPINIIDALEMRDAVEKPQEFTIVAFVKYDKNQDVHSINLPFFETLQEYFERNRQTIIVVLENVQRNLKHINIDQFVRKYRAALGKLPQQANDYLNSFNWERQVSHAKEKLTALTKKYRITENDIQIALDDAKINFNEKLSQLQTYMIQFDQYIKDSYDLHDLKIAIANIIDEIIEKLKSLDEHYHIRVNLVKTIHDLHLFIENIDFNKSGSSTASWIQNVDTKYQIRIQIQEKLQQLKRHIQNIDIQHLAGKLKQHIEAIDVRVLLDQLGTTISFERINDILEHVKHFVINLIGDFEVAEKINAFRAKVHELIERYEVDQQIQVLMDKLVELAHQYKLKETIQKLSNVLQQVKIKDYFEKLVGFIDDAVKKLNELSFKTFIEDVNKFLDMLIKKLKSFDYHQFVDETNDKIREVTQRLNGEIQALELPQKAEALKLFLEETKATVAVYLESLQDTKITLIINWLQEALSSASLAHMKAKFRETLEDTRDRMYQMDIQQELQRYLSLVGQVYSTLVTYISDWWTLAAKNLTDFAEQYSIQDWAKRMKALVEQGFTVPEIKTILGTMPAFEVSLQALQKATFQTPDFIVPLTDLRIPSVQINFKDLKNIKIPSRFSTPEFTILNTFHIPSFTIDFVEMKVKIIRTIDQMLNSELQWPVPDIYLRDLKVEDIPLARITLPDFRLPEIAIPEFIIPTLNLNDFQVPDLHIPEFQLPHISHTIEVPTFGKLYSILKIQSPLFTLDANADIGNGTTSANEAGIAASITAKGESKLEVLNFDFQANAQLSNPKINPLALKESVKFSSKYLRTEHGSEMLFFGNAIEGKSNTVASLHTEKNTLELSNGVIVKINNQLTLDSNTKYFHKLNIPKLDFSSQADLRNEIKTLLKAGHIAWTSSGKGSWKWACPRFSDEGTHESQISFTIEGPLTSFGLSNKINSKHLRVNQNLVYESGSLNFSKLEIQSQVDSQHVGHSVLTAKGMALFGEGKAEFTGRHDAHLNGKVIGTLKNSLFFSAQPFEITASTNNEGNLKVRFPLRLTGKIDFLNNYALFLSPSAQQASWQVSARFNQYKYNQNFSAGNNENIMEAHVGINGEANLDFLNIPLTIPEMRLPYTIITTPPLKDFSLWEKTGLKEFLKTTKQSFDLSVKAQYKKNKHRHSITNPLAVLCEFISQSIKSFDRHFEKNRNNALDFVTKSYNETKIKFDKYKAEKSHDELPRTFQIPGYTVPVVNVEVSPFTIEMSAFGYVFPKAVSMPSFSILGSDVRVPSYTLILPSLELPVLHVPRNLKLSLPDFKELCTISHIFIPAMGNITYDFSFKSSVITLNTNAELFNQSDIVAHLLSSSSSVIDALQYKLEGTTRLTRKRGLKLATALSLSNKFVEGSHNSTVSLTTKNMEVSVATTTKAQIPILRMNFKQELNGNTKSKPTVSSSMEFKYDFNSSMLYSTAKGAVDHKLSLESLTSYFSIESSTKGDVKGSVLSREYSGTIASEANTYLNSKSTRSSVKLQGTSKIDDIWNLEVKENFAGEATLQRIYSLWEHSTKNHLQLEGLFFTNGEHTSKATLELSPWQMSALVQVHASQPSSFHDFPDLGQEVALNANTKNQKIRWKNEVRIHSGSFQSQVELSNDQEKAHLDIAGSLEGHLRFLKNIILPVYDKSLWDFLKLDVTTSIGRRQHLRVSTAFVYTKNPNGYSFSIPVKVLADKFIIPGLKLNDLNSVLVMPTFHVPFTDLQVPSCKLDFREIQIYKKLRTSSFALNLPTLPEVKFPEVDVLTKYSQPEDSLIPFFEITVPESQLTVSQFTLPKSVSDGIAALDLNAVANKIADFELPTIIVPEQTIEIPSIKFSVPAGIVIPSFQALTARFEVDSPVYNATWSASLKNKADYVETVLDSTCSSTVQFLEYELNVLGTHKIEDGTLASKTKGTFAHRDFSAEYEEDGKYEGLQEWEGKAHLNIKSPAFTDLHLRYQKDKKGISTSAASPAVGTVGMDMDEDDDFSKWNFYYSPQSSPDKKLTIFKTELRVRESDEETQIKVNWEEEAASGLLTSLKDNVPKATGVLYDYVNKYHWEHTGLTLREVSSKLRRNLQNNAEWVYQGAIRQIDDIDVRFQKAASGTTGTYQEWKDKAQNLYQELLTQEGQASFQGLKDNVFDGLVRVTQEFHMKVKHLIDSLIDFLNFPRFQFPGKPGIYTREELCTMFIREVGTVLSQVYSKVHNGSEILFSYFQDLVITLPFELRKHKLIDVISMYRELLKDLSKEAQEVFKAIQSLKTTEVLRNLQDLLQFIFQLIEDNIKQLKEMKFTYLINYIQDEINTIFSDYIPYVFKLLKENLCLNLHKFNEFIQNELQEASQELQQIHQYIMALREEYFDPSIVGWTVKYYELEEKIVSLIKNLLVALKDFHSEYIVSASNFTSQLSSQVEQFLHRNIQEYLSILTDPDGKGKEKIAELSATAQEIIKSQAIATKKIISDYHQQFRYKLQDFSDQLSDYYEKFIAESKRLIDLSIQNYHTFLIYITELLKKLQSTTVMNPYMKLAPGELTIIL
T1 sequence (P04114 28-4563): as above

As for `CC(=O)N[C@H](CC(=O)O)C(=O)N[C@H](CC(N)=O)C(=O)N[C@H](CC(=O)O)C(=O)N[C@H](CO)C(=O)N[C@H](CCC(=O)O)C(=O)NC(CC(=O)O)C(=O)N[C@H](CC(N)=O)C(=O)N[C@H](CO)C(=O)N[C@H](CC(=O)O)C(=O)N[C@H](CCC(=O)O)C(=O)N[C@H](CCC(=O)O)C(=O)N[C@H](C)C(N)=O` (stereo partly drawn) [Example 13, Ac-D-Asp-D-Asn-D-Asp-D-Ser-D-Glu-D-Asp-D-Asn-D-Ser-D-Asp-D-Glu-D-Glu-D-Ala-NH2] (Ac-[dD][dN][dD][dS][dE][ξD][dN][dS][dD][dE][dE][dA]-NH2), the values for the inhibition at 10 µM in test [1] and in test [2] were 95.9% and 95.5%, respectively. Besides, the “CE/FC ratio decrease (%)” value in test [3] came out at 80.4%.

As for `CC(=O)N[C@H](CC(=O)O)C(=O)N[C@H](CO)C(=O)N[C@H](CCC(=O)O)C(=O)N[C@H](CC(=O)O)C(=O)N[C@H](CC(N)=O)C(=O)N[C@H](CO)C(=O)N[C@H](CC(=O)O)C(=O)N[C@H](CCC(=O)O)C(=O)N[C@H](CCC(=O)O)C(=O)N[C@H](CC(N)=O)C(N)=O` [Example 12, Ac-D-Asp-D-Ser-D-Glu-D-Asp-D-Asn-D-Ser-D-Asp-D-Glu-D-Glu-D-Asn-NH2] (Ac-[dD][dS][dE][dD][dN][dS][dD][dE][dE][dN]-NH2), the inhibition at 10 µM in test [1] came out at 94.3%; in test [2], 93.3%. Also, in test [3], the “CE/FC ratio decrease (%)” value was 76.5%.

As to `CC(=O)N[C@H](CC(N)=O)C(=O)N[C@H](CC(=O)O)C(=O)N[C@H](CO)C(=O)N[C@H](CCC(=O)O)C(=O)N[C@H](CC(=O)O)C(=O)N[C@H](CC(N)=O)C(=O)N[C@H](CO)C(=O)N[C@H](CC(=O)O)C(=O)N[C@H](CCC(=O)O)C(=O)N[C@H](CCC(=O)O)C(=O)N[C@H](CC(N)=O)C(N)=O` [Example 11, Ac-D-Asn-D-Asp-D-Ser-D-Glu-D-Asp-D-Asn-D-Ser-D-Asp-D-Glu-D-Glu-D-Asn-NH2] (Ac-[dN][dD][dS][dE][dD][dN][dS][dD][dE][dE][dN]-NH2), the inhibition at 10 µM in test [1] is 95.2%; in test [2] it was 94.8%. For the same molecule, in test [3], the “CE/FC ratio decrease (%)” value is on record as 76.5%.

Regarding `CC(=O)N[C@H](CC(=O)O)C(=O)N[C@H](CO)C(=O)N[C@H](CCC(=O)O)C(=O)N[C@H](CC(=O)O)C(=O)N[C@H](CC(N)=O)C(=O)N[C@H](C)C(=O)N[C@H](CC(=O)O)C(=O)N[C@H](CCC(=O)O)C(=O)N[C@H](CCC(=O)O)C(=O)N[C@H](C)C(N)=O` [Example 16, Ac-D-Asp-D-Ser-D-Glu-D-Asp-D-Asn-D-Ala-D-Asp-D-Glu-D-Glu-D-Ala-NH2] (Ac-[dD][dS][dE][dD][dN][dA][dD][dE][dE][dA]-NH2), the inhibition at 10 µM in test [1] was 61.9%; in test [2] it was 94%. Besides, in test [3], the “CE/FC ratio decrease (%)” value came out at 69.5%.

For the molecule `CC(=O)N[C@H](CO)C(=O)N[C@H](CCC(=O)O)C(=O)N[C@H](CC(=O)O)C(=O)N[C@H](CC(N)=O)C(=O)N[C@H](CO)C(=O)N[C@H](CC(=O)O)C(=O)N[C@H](CCC(=O)O)C(=O)N[C@H](CCC(=O)O)C(=O)N[C@H](CC(N)=O)C(N)=O` [Example 2, Ac-D-Ser-D-Glu-D-Asp-D-Asn-D-Ser-D-Asp-D-Glu-D-Glu-D-Asn-NH2] (Ac-[dS][dE][dD][dN][dS][dD][dE][dE][dN]-NH2), the inhibition at 10 µM is 87.7% in test [1] and 80.7% in test [2]. Further, the “CE/FC ratio decrease (%)” value in test [3] was 58.8%.

Consider `CC(=O)N[C@H](CC(=O)O)C(=O)N[C@H](C)C(=O)N[C@H](CCC(=O)O)C(=O)N[C@H](CC(=O)O)C(=O)N[C@H](CC(N)=O)C(=O)N[C@H](C)C(=O)N[C@H](CC(=O)O)C(=O)N[C@H](CCC(=O)O)C(=O)N[C@H](CCC(=O)O)C(=O)N[C@H](C)C(N)=O` [Example 17, Ac-D-Asp-D-Ala-D-Glu-D-Asp-D-Asn-D-Ala-D-Asp-D-Glu-D-Glu-D-Ala-NH2] (Ac-[dD][dA][dE][dD][dN][dA][dD][dE][dE][dA]-NH2), for which the inhibition at 10 µM in test [1] came out at 66.1%; in test [2], 95.2%. Also, in test [3], the “CE/FC ratio decrease (%)” value was found to be 67.4%.

For the molecule `CC(=O)NCC(=O)N[C@H](CC(=O)O)C(=O)N[C@H](CC(N)=O)C(=O)N[C@H](CC(=O)O)C(=O)N[C@H](CO)C(=O)N[C@H](CCC(=O)O)C(=O)N[C@H](CC(=O)O)C(=O)N[C@H](CC(N)=O)C(=O)N[C@H](CO)C(=O)N[C@H](CC(=O)O)C(=O)N[C@H](CCC(=O)O)C(=O)N[C@H](CCC(=O)O)C(=O)N[C@H](CC(N)=O)C(N)=O` [Example 1, Ac-Gly-D-Asp-D-Asn-D-Asp-D-Ser-D-Glu-D-Asp-D-Asn-D-Ser-D-Asp-D-Glu-D-lu-D-Asn-NH2] (Ac-G[dD][dN][dD][dS][dE][dD][dN][dS][dD][dE][dE][dN]-NH2), the results for the inhibition at 10 µM in test [1] and in test [2] were 77.5% and 92.5%, respectively. Moreover, the “CE/FC ratio decrease (%)” value in test [3] was 76.5%.

With `CC(=O)N[C@H](CC(=O)O)C(=O)N[C@H](CO)C(=O)N[C@H](CCC(=O)O)C(=O)N[C@H](CC(=O)O)C(=O)N[C@H](CC(N)=O)C(=O)N[C@H](CCCCN)C(=O)N[C@H](CC(=O)O)C(=O)N[C@H](CCC(=O)O)C(=O)N[C@H](CCC(=O)O)C(=O)N[C@H](CC(N)=O)C(N)=O` [Example 18, Ac-D-Asp-D-Ser-D-Glu-D-Asp-D-Asn-D-Lys-D-Asp-D-Glu-D-Glu-D-Asn-NH2] (Ac-[dD][dS][dE][dD][dN][dK][dD][dE][dE][dN]-NH2), the results for the inhibition at 10 µM in test [1] and in test [2] were 55.1% and 85.1%, respectively. For the same molecule, the “CE/FC ratio decrease (%)” value in test [3] is 47.6%.

What is called inhibition is the share of the control response that was lost under treatment.
